Source: patent US20250075180A1, “METHOD FOR EXPANSION CULTURE OF GAMMA-DELTA T CELL” (IMMUNOMAX CO., LTD., priority 2022, published 2025)

What was measured:
γδ T cells [1] = assay: γδ T cell proliferation rate and viability in PBMC culture depending on finasteride concentration (Example 1); format: cell-based, human; settings: for γδ T cell proliferation rate increase compared to control (IL-2 and ZA): PBMC from donor, 14-day culture; for proliferation rate of γδ T cells compared to control (in words): 14 days
Method: For 100 cc of blood from a healthy donor collected by a medical professional and placed in a heparin tube, 25 ml of 1×DPBS and 25 ml of the blood were placed in four 50 ml conical tubes. 15 ml of Lymphoprep (Axis Shield, UK) was vertically dispensed into a new 50 ml conical tube carefully to avoid contacting the wall as much as possible, and the diluted blood was slowly added to the top of the 50 ml conical tube containing the Lymphoprep solution along the wall. The conical tube was placed in a centrifuge and centrifuged at 800×g (1,890 rpm) for 20 minutes at room temperature. In the separated four blood layers, the white buffy coat layer between Lymphoprep and plasma layers was collected, transferred to new 50 ml conical tubes (three or four), and centrifuged at 1,500 rpm (500×g) for 10 minutes at room temperature. The cells divided into three or four 50 ml conical tubes were resuspended in 45 ml of 1×DPBS and then collected into one 50 ml conical tube. The cells collected in one tube were centrifuged a total of two times at 1,250 rpm (350×g) for 10 minutes at room temperature. A culture medium was added to a stock of 1.0×10^7 cells to a final volume of 10 ml so that the cell concentration was 1.0×10^6 cells/ml, followed by pipetting two or three times, after which 1.0 ml of the cells was dispensed as day 0 samples to proceed with culture, and the remaining cells were dispensed at 1.0×10^7 cells into frozen vials, stored frozen in a nitrogen tank (LN2 tank), and used by thawing as necessary. The peripheral blood mononuclear cells (PBMC) isolated in 1-1 were continuously treated with 3 μM zoledronic acid and 10^3 IU/ml IL-2 as basic culture components for γδ T cells and with 0.01 nM and 10 nM finasteride as an active ingredient, followed by culture for a total of 14 days, and the activation and proliferation rates of γδ T cells were compared. The frozen peripheral blood mononuclear cells were thawed in a constant temperature water bath at 37° C. and then suspended in 9 ml of OpTmizer medium (Thermo-Fisher Scientific, USA) containing 10% heat inactivated fetal bovine serum (FBS, Gibco, USA). The number of cells was measured, followed by centrifugation at 400×g and 25° C. for 4 minutes. The cell pellets obtained by centrifugation were suspended in 5 ml of complete OpTmizer medium (10% fetal bovine serum+OpTmizer medium, cOpTmizer) and the number of cells was measured, after which the cells were diluted with cOpTmizer medium to a concentration of 1.0×10^6 cells/ml. […] After 2 days of re-induction, the aggregated cells were resuspended using a 1000P micropipette and the number of cells was measured. […] 7 days after the start of culture, the aggregated cells were resuspended using a 1000P micropipette or a 10 ml serological pipette and the number of cells was measured. […]

γδ T cells [2] = assay: γδ T cell proliferation rate and viability in PBMC culture depending on finasteride treatment period (Example 4); format: cell-based, human
Method: Peripheral blood mononuclear cells (PBMC) were isolated from healthy donors and were cultured for a total of 14 days by continuous treatment with 10 nM finasteride as the active ingredient for each period until day 7, day 10, and day 14 from the start date of culture, in addition to the basic culture components for γδ T cells (3 μM zoledronic acid and 10^3 IU/ml IL-2), and the activation and proliferation rates of γδ T cells were compared. The frozen peripheral blood mononuclear cells were thawed in a constant temperature water bath at 37° C. and then suspended in 9 ml of OpTmizer medium (cOpTmizer, Thermo-Fisher Scientific, USA) containing 10% fetal bovine serum (FBS). The number of cells was measured, followed by centrifugation at 400×g and 25° C. for 4 minutes. The cell pellets obtained by centrifugation were suspended in 5 ml of cOpTmizer medium (Thermo-Fisher Scientific, USA) and the number of cells was measured, after which the cells were diluted with cOpTmizer medium to a concentration of 1.0×10^6 cells/ml. A total of 1.0×10^6 cells was dispensed at 1 ml per well in a 24-well plate. To stimulate and induce differentiation of γδ T cells, 10 nM finasteride, 3 μM zoledronic acid (ZA), and 100 μl of IL-2 (10^3 IU/ml) were added, followed by culture in a CO2 incubator at 37° C. for 4 days. 4 days after the start of culture, the aggregated cells were resuspended using a 1000P micropipette, and the same amount of cOpTmizer culture medium based on the cell culture fluid in culture and 10 nM finasteride and IL-2 (10^3 IU/ml) for re-induction were further added, followed by culture in a CO2 incubator at 37° C. 5 days after the start of culture, the aggregated cells were resuspended using a 1000P micropipette and the number of cells was measured. 10 nM finasteride and IL-2 (10^3 IU/ml) were further added to the same amount of cOpTmizer culture medium based on the cell culture fluid in culture, followed by culture in a CO2 incubator at 37° C. The next day, 10 nM finasteride and IL-2 (10^3 IU/ml) were further added to half of the cOpTmizer culture medium based on the cell culture fluid in culture, followed by culture in a CO2 incubator at 37° C. 7 days after the start of culture, the aggregated cells were resuspended using a 1000P micropipette or a 10 ml serological pipette and the number of cells was measured. The cells were diluted with cOpTmizer culture medium to a concentration of 0.4×10^6 cells/ml based on the cells in culture, after which 10 nM finasteride and IL-2 (10^3 IU/ml) were added to the additional cOpTmizer culture medium, followed by culture in a CO2 incubator at 37° C. for 3 days. 10 days after the start of culture, the aggregated cells were resuspended using a 1000P micropipette or a 10 ml serological pipette and the number of cells was measured. The cells were diluted with cOpTmizer culture medium to a concentration of 0.4×10^6 cells/ml based on the cells in culture, after which 10 nM finasteride and IL-2 (10^3 IU/ml) were added to the additional cOpTmizer culture medium, followed by culture in a CO2 incubator at 37° C. On day 12 after the start of the culture, the same amount of cOpTmizer culture medium based on the cell culture fluid in culture, 10 nM finasteride, and IL-2 (10^3 IU/ml) were added, followed by culture in a CO2 incubator at 37° C. 14 days after the start of culture, the aggregated cells were resuspended using a 1000P micropipette or a 10 ml serological pipette and the number of cells was measured. […]

[3] = 10 nM finasteride continuously until day 7, 14-day culture, FIG. 9

## CC(C)(C)NC(=O)[C@H]1CC[C@H]2[C@@H]3CC[C@H]4NC(=O)C=C[C@]4(C)[C@H]3CC[C@]12C [Finasteride]
γδ T cells [1]; 0.01 nM finasteride
  γδ T cell proliferation rate increase compared to control (IL-2 and ZA): 1.15 times increase
γδ T cells [1]; 10 nM finasteride
  γδ T cell proliferation rate increase compared to control (IL-2 and ZA): 1.35 times increase
γδ T cells [1]; female donors, low concentration of finasteride (0.01 nM), FIG. 2
  proliferation rate of γδ T cells compared to control (in words): increased
γδ T cells [1]; male donors, high concentration of finasteride (10 nM), FIG. 1
  proliferation rate of γδ T cells compared to control (in words): increased
γδ T cells [2]; [3]
  γδ T cell proliferation rate increase compared to control group: about 1.5 times
  γδ T cell proliferation rate increase compared to group treated continuously until day 10 or 14: at least 1.1 times
γδ T cells [2]; continuous treatment with high concentration (10 nM) of finasteride
  cell viability compared to control group: no significant difference
γδ T cells [2]; cultured for 7 days
  proportion of γδ T cells: about 70%
γδ T cells [2]; cultured for 10 days
  proportion of γδ T cells: ≥ 90%
